How the values were obtained:
[1] = Plasma protein binding rate (PPB) test, equilibrium dialysis; type: in vitro ADME; conditions: human, 37°C
Description: In vitro protein binding rates of 0.2 μM, 2 μM, 10 μM of test compounds with Sprague-Dawley rats, beagle dogs, human plasma were determined by equilibrium dialysis.
The experiment will use a 96-well equilibrium dialysis plate (HTDialysis device) to determine the plasma protein binding rate of the to-be-tested compound and the control compounds.
Prior to the start of the experiment, the dialysis membrane was pretreated according to the instructions for use and the dialysis unit was assembled as required.
Blank plasma was taken from CD-1 mice, Sprague-Dawley rats, Beagle dogs, cynomolgus monkeys and humans (an anticoagulant is EDTA-K2, which is a commercial product purchased, or is collected and prepared by the Drug Evaluation Department of Wuxi AppTech, and is stored in a refrigerator below −60° C. before use). A certain volume of the to-be-tested compound or the control compound working solution was added to prepare plasma samples of the compound to be tested at a concentration of 0.2, 2, 10 μM and plasma samples of the control compound at a concentration of 2 μM (n=1). The organic phase content was ≤1%. First, a certain volume of a plasma sample containing the to-be-tested compound and the control compound was taken out into the sample receiving plate as a sample at zero time (T0 sample, n=3); secondly, a plasma sample containing the to-be-tested compound and the control compound was added to one side of the dialysis membrane (plasma end, n=3), and a certain volume of dialysis buffer (buffer end, n=3) was added to the other side of the dialysis membrane; then the dialysis plate was placed in a humidified incubator with 5% CO2 for incubation for 4 hours at 37±1° C.
After the incubation, a certain volume of the dialyzed buffer sample (F sample) and the dialyzed plasma sample (T sample) were transferred to the sample receiving plate, and all samples were subjected to protein precipitation for LC/MS/MS analysis. And the dissociation rate of the compound (% Unbound) was calculated by the following formula: % Unbound=100*[F]/[T], % Bound=100−% Unbound. Wherein, % Unbound is the dissociation rate of the compound; % Bound is the binding rate of the compound; [F] is the concentration of the compound at the buffer end of the dialysis plate; [T] is the concentration of the compound at the plasma end of the dialysis plate; and the experimental results are shown in Table 7.

hAT2 = molecular target: T1, hAT2 (Homo sapiens, UniProt P50052); test: hAT2 receptor binding assay (SPA, [125I]-Sar1-Ile8-Angiotensin II); conditions: membrane of HEK-293 cells overexpressing hAT2; 0.1 nM 125I ligand
T1 construct: expressed in transfected cells; host or cells: HEK-293
T1 sequence (P50052 1-363): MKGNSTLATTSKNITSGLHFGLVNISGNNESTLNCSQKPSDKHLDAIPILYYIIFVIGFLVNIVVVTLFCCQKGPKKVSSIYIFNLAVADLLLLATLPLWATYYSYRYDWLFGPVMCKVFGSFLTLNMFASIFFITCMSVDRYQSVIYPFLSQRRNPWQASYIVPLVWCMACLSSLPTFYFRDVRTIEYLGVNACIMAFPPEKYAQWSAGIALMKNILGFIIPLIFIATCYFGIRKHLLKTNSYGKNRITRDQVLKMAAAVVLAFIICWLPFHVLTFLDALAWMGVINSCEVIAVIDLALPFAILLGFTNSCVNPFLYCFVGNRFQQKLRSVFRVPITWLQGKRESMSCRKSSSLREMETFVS
Method in brief: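 Competition binding by scintillation proximity: 0.1 nM final [125I]-Sar1-Ile8-Angiotensin II was displaced from hAT2-overexpressing HEK-293 membranes (1.25 μg/well, beads 250 μg/well). Test compounds were run in 8 concentrations at 3-fold steps, diluted 250-fold from stock, with overnight room-temperature shaking before counting.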

| Compound | fraction unbound at 4 h [1] | IC50 (hAT2) [nM] |
| --- | --- | --- |
| COc1ccc2c(c1OCc1ccccc1)C[C@@H](C(=O)O)N(C(=O)[C@@H](O[C@H]1CC[C@@H](O)CC1)c1ccccc1)C2 [Compound 63] | 0.016 | 10.3 |
| COc1ccc2c(c1OCc1ccccc1)C[C@@H](C(=O)O)N(C(=O)[C@@H](OC1(C)CCCC1)c1ccccc1)C2 [Compound 57] | 0.005 | 5.8 |
| COc1ccc2c(c1OCc1ccccc1)C[C@@H](C(=O)O)N(C(=O)[C@@H](OC1CC(F)(F)C1)c1ccccc1)C2 [Compound 51] | 0.007 | 3.2 |
| COc1ccc2c(c1OCc1ccccc1)C[C@@H](C(=O)O)N(C(=O)C(c1ccccc1)c1ccccc1)C2 [EMA-401, reference compound] | 0.002 |  |

Continued, values first:

| fraction unbound at 4 h [1] | IC50 (hAT2) [nM] | Compound |
| --- | --- | --- |
| 0.004 | 4.1 | COc1ccc2c(c1OCc1ccccc1)C[C@@H](C(=O)O)N(C(=O)[C@@H](OC1CCCC1)c1ccccc1)C2 [Compound 37] |
|  | 13.2 | O=C(O)[C@@H]1Cc2c(ccc(Cl)c2OCc2ccccc2)CN1C(=O)[C@@H](OC1CCCC1)c1ccccc1 [Compound 107] |

Reference: patent US11021445B2, “Carboxylic acid derivative as AT2R receptor antagonist” (SHANDONG DANHONG PHARMACEUTICAL CO., LTD., priority 2017, dated 2021)
